Test results published in PubChem BioAssay (NCI).
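Each compound was tested at five concentrations against cells in 96-well plates for 48 hours. At the GI50, growth is halved. TGI is the concentration that stops growth completely.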

Assays:
Assay in all cases: DTP human tumour cell line panel, 48 h
[1] = tested on: MDA-MB-231 breast
[2] = tested on: TK-10 renal
[3] = tested on: MDA-MB-435
[4] = tested on: NCI-H460 lung
[5] = tested on: NCI/ADR-RES ovarian
[6] = tested on: 786-0 renal
[7] = tested on: HCT-15 colon
[8] = tested on: OVCAR-8 ovarian
[9] = tested on: HT29 colon
[10] = tested on: UACC-62 melanoma
[11] = tested on: OVCAR-4 ovarian
[12] = tested on: HL-60(TB) leukemia
[13] = tested on: CCRF-CEM leukemia
[14] = tested on: HOP-62 NSCLC
[15] = tested on: M14 melanoma
[16] = tested on: SF-295 CNS
[17] = tested on: KM12 colon
[18] = tested on: UO-31 renal
[19] = tested on: SK-MEL-5 melanoma
[20] = tested on: HCC-2998 colon
[21] = tested on: SN12C renal
[22] = tested on: BT-549 breast
[23] = tested on: SF-539 CNS
[24] = tested on: NCI-H226 lung
[25] = tested on: MALME-3M melanoma
[26] = tested on: NCI-H522 lung
[27] = tested on: HOP-92 NSCLC
[28] = tested on: SW-620 colon
[29] = tested on: SNB-19 CNS
[30] = tested on: MOLT-4 leukemia
[31] = tested on: IGROV1 ovarian
[32] = tested on: OVCAR-3 ovarian
[33] = tested on: LOX IMVI melanoma
[34] = tested on: SK-OV-3 ovarian
[35] = tested on: OVCAR-5 ovarian
[36] = tested on: SK-MEL-2 melanoma
[37] = tested on: HS 578T breast
[38] = tested on: RPMI-8226 leukemia
[39] = tested on: T-47D breast
[40] = tested on: A498 renal
[41] = tested on: K-562 leukemia
[42] = tested on: PC-3 prostate
[43] = tested on: SF-268 CNS
[44] = tested on: COLO 205 colon
[45] = tested on: MCF7 breast
[46] = tested on: A549 NSCLC
[47] = tested on: SR leukemia
[48] = tested on: UACC-257 melanoma
[49] = tested on: U251 CNS
[50] = tested on: CAKI-1 renal
[51] = tested on: NCI-H23 lung
[52] = tested on: ACHN renal
[53] = tested on: DU-145 prostate
[54] = tested on: RXF 393 renal
[55] = tested on: SNB-75 CNS
[56] = tested on: HCT-116 colon
[57] = tested on: SK-MEL-28 melanoma

`Cn1c(=O)c(Cc2ccccc2F)cc2cnc(NC3CCOCC3)nc21` showed a GI50 [1] of over 25 µM, a TGI [1] of over 25 µM and a GI50 [2] of over 25 µM. For the same compound, the TGI [2] was over 25 µM, the GI50 [3] was over 25 µM and the TGI [3] was over 25 µM. For the same compound, the GI50 [4] was over 25 µM, the TGI [4] was over 25 µM and the GI50 [5] was over 25 µM. For the same compound, the TGI [5] was over 25 µM, the GI50 [6] was over 25 µM and the TGI [6] was over 25 µM. For the same compound, the GI50 [7] was over 25 µM, the TGI [7] was over 25 µM and the GI50 [8] was over 25 µM. For the same compound, the TGI [8] was over 25 µM, the GI50 [9] was over 25 µM and the TGI [9] was over 25 µM. It also gave a GI50 [10] of over 25 µM, a TGI [10] of over 25 µM and a GI50 [11] of over 25 µM. The TGI [11] was over 25 µM, the GI50 [12] was over 25 µM and the TGI [12] was over 25 µM. For the same compound, the GI50 [13] was over 25 µM, the TGI [13] was over 25 µM and the GI50 [14] was over 25 µM. The TGI [14] was over 25 µM, the GI50 [15] was over 25 µM and the TGI [15] was over 25 µM. The GI50 [16] was over 25 µM, the TGI [16] was over 25 µM and the GI50 [17] was over 25 µM. The TGI [17] was over 25 µM, the GI50 [18] was over 20.4 µM and the TGI [18] was over 25 µM. For the same compound, the GI50 [19] was over 25 µM, the TGI [19] was over 25 µM and the GI50 [20] was over 25 µM. The TGI [20] was over 25 µM, the GI50 [21] was over 25 µM and the TGI [21] was over 25 µM. The GI50 [22] was over 25 µM, the TGI [22] was over 25 µM and the GI50 [23] was over 25 µM. It also gave a TGI [23] of over 25 µM, a GI50 [24] of over 25 µM and a TGI [24] of over 25 µM. For the same compound, the GI50 [25] was over 25 µM, the TGI [25] was over 25 µM and the GI50 [26] was over 25 µM. It also gave a TGI [26] of over 25 µM, a GI50 [27] of 4.91 µM and a TGI [27] of over 25 µM. The GI50 [28] was over 25 µM, the TGI [28] was over 25 µM and the GI50 [29] was over 25 µM. The TGI [29] was over 25 µM, the GI50 [30] was over 25 µM and the TGI [30] was over 25 µM. For the same compound, the GI50 [31] was over 25 µM, the TGI [31] was over 25 µM and the GI50 [32] was over 25 µM. For the same compound, the TGI [32] was over 25 µM, the GI50 [33] was over 25 µM and the TGI [33] was over 25 µM. For the same compound, the GI50 [34] was over 25 µM, the TGI [34] was over 25 µM and the GI50 [35] was over 25 µM. It also gave a TGI [35] of over 25 µM, a GI50 [36] of over 25 µM and a TGI [36] of over 25 µM. The GI50 [37] was over 25 µM, the TGI [37] was over 25 µM and the GI50 [38] was over 25 µM. It also gave a TGI [38] of over 25 µM, a GI50 [39] of over 25 µM and a TGI [39] of over 25 µM. The GI50 [40] was over 25 µM, the TGI [40] was over 25 µM and the GI50 [41] was over 25 µM. For the same compound, the TGI [41] was over 25 µM, the GI50 [42] was over 25 µM and the TGI [42] was over 25 µM. For the same compound, the GI50 [43] was over 25 µM, the TGI [43] was over 25 µM and the GI50 [44] was over 25 µM. For the same compound, the TGI [44] was over 25 µM, the GI50 [45] was over 25 µM and the TGI [45] was over 25 µM. The GI50 [46] was over 25 µM, the TGI [46] was over 25 µM and the GI50 [47] was over 25 µM. It also gave a TGI [47] of over 25 µM, a GI50 [48] of over 25 µM and a TGI [48] of over 25 µM. The GI50 [49] was over 25 µM, the TGI [49] was over 25 µM and the GI50 [50] was over 25 µM. It also gave a TGI [50] of over 25 µM, a GI50 [51] of over 25 µM and a TGI [51] of over 25 µM. For the same compound, the GI50 [52] was over 25 µM, the TGI [52] was over 25 µM and the GI50 [53] was over 25 µM. For the same compound, the TGI [53] was over 25 µM, the GI50 [54] was over 18.4 µM and the TGI [54] was over 25 µM. For the same compound, the GI50 [55] was over 8.48 µM, the TGI [55] was over 25 µM and the GI50 [56] was over 25 µM. For the same compound, the TGI [56] was over 25 µM, the GI50 [57] was over 25 µM and the TGI [57] was over 25 µM.

`Cc1[nH]c2ccccc2c(=O)c1CC=C(Cl)Cl` was tested, and the GI50 [1] was 31 µM, the TGI [1] was over 100 µM and the GI50 [2] was 25.5 µM. It also gave a TGI [2] of 99.3 µM, a GI50 [3] of over 100 µM and a TGI [3] of over 100 µM. It also gave a GI50 [4] of 72.5 µM, a TGI [4] of over 100 µM and a GI50 [5] of 44.2 µM. It also gave a TGI [5] of over 100 µM, a GI50 [6] of 35.3 µM and a TGI [6] of over 100 µM. For the same compound, the GI50 [7] was over 100 µM, the TGI [7] was over 100 µM and the GI50 [8] was 66.6 µM. For the same compound, the TGI [8] was over 100 µM, the GI50 [9] was over 100 µM and the TGI [9] was over 100 µM. It also gave a GI50 [10] of 34.5 µM, a TGI [10] of over 100 µM and a GI50 [11] of 18.6 µM. For the same compound, the TGI [11] was 79.9 µM, the GI50 [12] was over 100 µM and the TGI [12] was over 100 µM. For the same compound, the GI50 [13] was over 100 µM, the TGI [13] was over 100 µM and the GI50 [14] was 24.1 µM. The TGI [14] was 64.5 µM, the GI50 [15] was over 100 µM and the TGI [15] was over 100 µM. It also gave a GI50 [16] of 32 µM, a TGI [16] of over 100 µM and a GI50 [17] of over 100 µM. It also gave a TGI [17] of over 100 µM, a GI50 [18] of 42.8 µM and a TGI [18] of over 100 µM. The GI50 [19] was 27.5 µM, the TGI [19] was over 100 µM and the GI50 [20] was over 100 µM. It also gave a TGI [20] of over 100 µM, a GI50 [21] of 50.3 µM and a TGI [21] of over 100 µM. For the same compound, the GI50 [22] was 47 µM, the TGI [22] was over 100 µM and the GI50 [23] was 39.4 µM. For the same compound, the TGI [23] was over 100 µM, the GI50 [24] was 25.9 µM and the TGI [24] was over 100 µM. For the same compound, the GI50 [25] was over 100 µM, the TGI [25] was over 100 µM and the GI50 [26] was 24.6 µM. For the same compound, the TGI [26] was over 100 µM, the GI50 [27] was 15 µM and the TGI [27] was 70.3 µM. It also gave a GI50 [28] of over 100 µM, a TGI [28] of over 100 µM and a GI50 [29] of 25.7 µM. It also gave a TGI [29] of over 100 µM, a GI50 [30] of 82.3 µM and a TGI [30] of over 100 µM. It also gave a GI50 [31] of 64.2 µM, a TGI [31] of over 100 µM and a GI50 [32] of 43.5 µM. For the same compound, the TGI [32] was over 100 µM, the GI50 [33] was over 100 µM and the TGI [33] was over 100 µM. It also gave a GI50 [34] of 24.2 µM, a TGI [34] of 55.6 µM and a GI50 [35] of over 100 µM. For the same compound, the TGI [35] was over 100 µM, the GI50 [36] was 28.4 µM and the TGI [36] was over 100 µM. It also gave a GI50 [37] of 24.6 µM, a TGI [37] of over 100 µM and a GI50 [38] of 84.4 µM. For the same compound, the TGI [38] was over 100 µM, the GI50 [39] was 29 µM and the TGI [39] was over 100 µM. For the same compound, the GI50 [40] was 14.5 µM, the TGI [40] was 86.8 µM and the GI50 [41] was 99.2 µM. It also gave a TGI [41] of over 100 µM, a GI50 [42] of 99.9 µM and a TGI [42] of over 100 µM. The GI50 [43] was 31.2 µM, the TGI [43] was over 100 µM and the GI50 [44] was over 100 µM. It also gave a TGI [44] of over 100 µM, a GI50 [45] of 58 µM and a TGI [45] of over 100 µM. The GI50 [46] was 49.4 µM, the TGI [46] was over 100 µM and the GI50 [47] was 58.1 µM. For the same compound, the TGI [47] was over 100 µM, the GI50 [48] was 57 µM and the TGI [48] was over 100 µM. It also gave a GI50 [50] of 63.9 µM, a TGI [50] of over 100 µM and a GI50 [51] of 50.6 µM. For the same compound, the TGI [51] was over 100 µM, the GI50 [52] was 37.3 µM and the TGI [52] was over 100 µM. For the same compound, the GI50 [53] was 88.2 µM, the TGI [53] was over 100 µM and the GI50 [55] was 10.6 µM. For the same compound, the TGI [55] was 37.5 µM, the GI50 [56] was 45.3 µM and the TGI [56] was over 100 µM. It also gave a GI50 [57] of 52.9 µM and a TGI [57] of over 100 µM.
